Measured values published in patent US9113629B2, “4-amino-6-(4-substituted-phenyl)-picolinates and 6-amino-2-(4-substituted-phenyl)-pyrimidine-4-carboxylates and their use as herbicides” (DOW AGROSCIENCES LLC, priority 2013, dated 2015).

system: LAMSS; assay: Post-emergent Test III, herbicidal activity in wheat and barley; type: in vivo; conditions: post-emergence, 504 h; 35 g ai/ha; read-out: Visual Growth Reduction (%) 21 Days After Application LAMSS
Outline: (§1)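 GR20, GR50, GR80 and GR90 come from probit analysis of visual injury scores (0 = none, 100 = complete kill) taken 21 d after treatment. Foliar application was by track sprayer delivering 187 L/ha at five rates, from high down to 1/16×, onto greenhouse plants at the 2–3 leaf stage, with solvent-blank controls.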

Q: Which pest or weed control at 35 g/ha does the source give for Nc1cc(-c2ccc(Br)c(F)c2F)nc(C(=O)O)c1Cl [Compound 91] here?
A: 95 to 100%

Q: How did the pest or weed control at 35 g/ha turn out when COC(=O)c1nc(-c2ccc(F)c(F)c2F)c(F)c(N)c1Cl [Compound 186] was run?
A: 75 to 84%

Q: How did the pest or weed control at 35 g/ha turn out when COC(=O)c1nc(-c2ccc(F)cc2)c(F)c(N)c1Cl [Compound 204] was run?
A: 85 to 94%

same assay, conditions: post-emergence, 504 h; 70 g ai/ha; read-out: Visual Growth Reduction (%) 21 Days After Application LAMSS

Q: With Nc1cc(-c2ccc(Br)c(F)c2F)nc(C(=O)O)c1Cl [Compound 91] as the compound, how does the pest or weed control at 70 g/ha read?
A: 95 to 100%

Q: Which pest or weed control at 70 g/ha does the source give for COC(=O)c1nc(-c2ccc(F)c(F)c2F)c(F)c(N)c1Cl [Compound 186] here?
A: 85 to 94%

Q: Which pest or weed control at 70 g/ha does the source give for COC(=O)c1nc(-c2ccc(F)cc2)c(F)c(N)c1Cl [Compound 204] here?
A: 95 to 100%

same assay, conditions: post-emergence, 504 h; 140 g ai/ha; read-out: Visual Growth Reduction (%) 21 Days After Application LAMSS

Q: How did the pest or weed control at 140 g/ha turn out when Nc1cc(-c2ccc(Br)c(F)c2F)nc(C(=O)O)c1Cl [Compound 91] was run?
A: 95 to 100%

Q: For COC(=O)c1nc(-c2ccc(F)c(F)c2F)c(F)c(N)c1Cl [Compound 186], which pest or weed control at 140 g/ha is on record?
A: 85 to 94%

Q: COC(=O)c1nc(-c2ccc(F)cc2)c(F)c(N)c1Cl [Compound 204] was tested. Which pest or weed control at 140 g/ha did it give?
A: 95 to 100%

same assay, conditions: probit analysis, dose for growth reduction of 50 percent, 21 days after application

Q: For Nc1cc(-c2ccc(Br)c(F)c2F)nc(C(=O)O)c1Cl [Compound 91], which “GR50 LAMSS” value is on record?
A: 1 g ai/ha

Q: Which “GR50 LAMSS” value does the source give for COC(=O)c1nc(-c2ccc(F)c(F)c2F)c(F)c(N)c1Cl [Compound 186] here?
A: 1 g ai/ha

Q: With COC(=O)c1nc(-c2ccc(F)cc2)c(F)c(N)c1Cl [Compound 204] as the compound, how does the “GR50 LAMSS” value read?
A: 1 g ai/ha

same assay, conditions: probit analysis, dose for growth reduction of 80 percent, 21 days after application

Q: How did the “GR80 LAMSS” value turn out when Nc1cc(-c2ccc(Br)c(F)c2F)nc(C(=O)O)c1Cl [Compound 91] was run?
A: 3 g ai/ha

Q: COC(=O)c1nc(-c2ccc(F)c(F)c2F)c(F)c(N)c1Cl [Compound 186] was tested. Which “GR80 LAMSS” value did it give?
A: 25 g ai/ha

Q: Which “GR80 LAMSS” value does the source give for COC(=O)c1nc(-c2ccc(F)cc2)c(F)c(N)c1Cl [Compound 204] here?
A: 8 g ai/ha

system: BROTE: downy brome (Bromus tectorum); assay: as above; type: in vivo; conditions: Bromus tectorum, post-emergence, 504 h; 35 g ai/ha; read-out: Visual Growth Reduction (%) 21 Days After Application BROTE
Outline: as §1

Q: For Nc1cc(-c2ccc(Br)c(F)c2F)nc(C(=O)O)c1Cl [Compound 91], which pest or weed control at 35 g/ha is on record?
A: 45 to 59%

Q: For COC(=O)c1nc(-c2ccc(F)c(F)c2F)c(F)c(N)c1Cl [Compound 186], which pest or weed control at 35 g/ha is on record?
A: 0 to 29%

Q: With COC(=O)c1nc(-c2ccc(F)cc2)c(F)c(N)c1Cl [Compound 204] as the compound, how does the pest or weed control at 35 g/ha read?
A: 0 to 29%

same assay, conditions: Bromus tectorum, post-emergence, 504 h; 70 g ai/ha; read-out: Visual Growth Reduction (%) 21 Days After Application BROTE

Q: Nc1cc(-c2ccc(Br)c(F)c2F)nc(C(=O)O)c1Cl [Compound 91] was tested. Which pest or weed control at 70 g/ha did it give?
A: 45 to 59%

Q: How did the pest or weed control at 70 g/ha turn out when COC(=O)c1nc(-c2ccc(F)c(F)c2F)c(F)c(N)c1Cl [Compound 186] was run?
A: 0 to 29%

Q: How did the pest or weed control at 70 g/ha turn out when COC(=O)c1nc(-c2ccc(F)cc2)c(F)c(N)c1Cl [Compound 204] was run?
A: 0 to 29%

same assay, conditions: Bromus tectorum, post-emergence, 504 h; 140 g ai/ha; read-out: Visual Growth Reduction (%) 21 Days After Application BROTE

Q: Nc1cc(-c2ccc(Br)c(F)c2F)nc(C(=O)O)c1Cl [Compound 91] was tested. Which pest or weed control at 140 g/ha did it give?
A: 30 to 44%

Q: Which pest or weed control at 140 g/ha does the source give for COC(=O)c1nc(-c2ccc(F)c(F)c2F)c(F)c(N)c1Cl [Compound 186] here?
A: 0 to 29%

Q: Which pest or weed control at 140 g/ha does the source give for COC(=O)c1nc(-c2ccc(F)cc2)c(F)c(N)c1Cl [Compound 204] here?
A: 30 to 44%

same assay, conditions: probit analysis, dose for growth reduction of 50 percent, 21 days after application

Q: Nc1cc(-c2ccc(Br)c(F)c2F)nc(C(=O)O)c1Cl [Compound 91] was tested. Which “GR50 BROTE” value did it give?
A: 29 g ai/ha

Q: With COC(=O)c1nc(-c2ccc(F)c(F)c2F)c(F)c(N)c1Cl [Compound 186] as the compound, how does the “GR50 BROTE” value read?
A: >140 g ai/ha

Q: Which “GR50 BROTE” value does the source give for COC(=O)c1nc(-c2ccc(F)cc2)c(F)c(N)c1Cl [Compound 204] here?
A: >140 g ai/ha

same assay, conditions: probit analysis, dose for growth reduction of 80 percent, 21 days after application

Q: With Nc1cc(-c2ccc(Br)c(F)c2F)nc(C(=O)O)c1Cl [Compound 91] as the compound, how does the “GR80 BROTE” value read?
A: >140 g ai/ha

Q: For COC(=O)c1nc(-c2ccc(F)c(F)c2F)c(F)c(N)c1Cl [Compound 186], which “GR80 BROTE” value is on record?
A: >140 g ai/ha

Q: COC(=O)c1nc(-c2ccc(F)cc2)c(F)c(N)c1Cl [Compound 204] was tested. Which “GR80 BROTE” value did it give?
A: >140 g ai/ha

system: PAPRH: common poppy (Papaver rhoeas); assay: as above; type: in vivo; conditions: Papaver rhoeas, post-emergence, 504 h; 35 g ai/ha; read-out: Visual Growth Reduction (%) 21 Days After Application PAPRH
Outline: as §1

Q: With Nc1cc(-c2ccc(Br)c(F)c2F)nc(C(=O)O)c1Cl [Compound 91] as the compound, how does the pest or weed control at 35 g/ha read?
A: 95 to 100%

same assay, conditions: Papaver rhoeas, post-emergence, 504 h; 70 g ai/ha; read-out: Visual Growth Reduction (%) 21 Days After Application PAPRH

Q: For Nc1cc(-c2ccc(Br)c(F)c2F)nc(C(=O)O)c1Cl [Compound 91], which pest or weed control at 70 g/ha is on record?
A: 95 to 100%

same assay, conditions: Papaver rhoeas, post-emergence, 504 h; 140 g ai/ha; read-out: Visual Growth Reduction (%) 21 Days After Application PAPRH

Q: For Nc1cc(-c2ccc(Br)c(F)c2F)nc(C(=O)O)c1Cl [Compound 91], which pest or weed control at 140 g/ha is on record?
A: 95 to 100%

same assay, conditions: probit analysis, dose for growth reduction of 50 percent, 21 days after application

Q: Nc1cc(-c2ccc(Br)c(F)c2F)nc(C(=O)O)c1Cl [Compound 91] was tested. Which “GR50 PAPRH” value did it give?
A: 1 g ai/ha

same assay, conditions: probit analysis, dose for growth reduction of 80 percent, 21 days after application

Q: Nc1cc(-c2ccc(Br)c(F)c2F)nc(C(=O)O)c1Cl [Compound 91] was tested. Which “GR80 PAPRH” value did it give?
A: 1 g ai/ha

system: ALOMY: black-grass (Alopecurus myosuroides); assay: as above; type: in vivo; conditions: Alopecurus myosuroides, post-emergence, 504 h; 35 g ai/ha; read-out: Visual Growth Reduction (%) 21 Days After Application ALOMY
Outline: as §1

Q: Which pest or weed control at 35 g/ha does the source give for Nc1cc(-c2ccc(Br)c(F)c2F)nc(C(=O)O)c1Cl [Compound 91] here?
A: 45 to 59%

Q: For COC(=O)c1nc(-c2ccc(F)c(F)c2F)c(F)c(N)c1Cl [Compound 186], which pest or weed control at 35 g/ha is on record?
A: 0 to 29%

Q: With COC(=O)c1nc(-c2ccc(F)cc2)c(F)c(N)c1Cl [Compound 204] as the compound, how does the pest or weed control at 35 g/ha read?
A: 0 to 29%

same assay, conditions: Alopecurus myosuroides, post-emergence, 504 h; 70 g ai/ha; read-out: Visual Growth Reduction (%) 21 Days After Application ALOMY

Q: Nc1cc(-c2ccc(Br)c(F)c2F)nc(C(=O)O)c1Cl [Compound 91] was tested. Which pest or weed control at 70 g/ha did it give?
A: 45 to 59%

Q: With COC(=O)c1nc(-c2ccc(F)c(F)c2F)c(F)c(N)c1Cl [Compound 186] as the compound, how does the pest or weed control at 70 g/ha read?
A: 0 to 29%

Q: How did the pest or weed control at 70 g/ha turn out when COC(=O)c1nc(-c2ccc(F)cc2)c(F)c(N)c1Cl [Compound 204] was run?
A: 45 to 59%

same assay, conditions: Alopecurus myosuroides, post-emergence, 504 h; 140 g ai/ha; read-out: Visual Growth Reduction (%) 21 Days After Application ALOMY

Q: With Nc1cc(-c2ccc(Br)c(F)c2F)nc(C(=O)O)c1Cl [Compound 91] as the compound, how does the pest or weed control at 140 g/ha read?
A: 45 to 59%

Q: For COC(=O)c1nc(-c2ccc(F)c(F)c2F)c(F)c(N)c1Cl [Compound 186], which pest or weed control at 140 g/ha is on record?
A: 0 to 29%

Q: How did the pest or weed control at 140 g/ha turn out when COC(=O)c1nc(-c2ccc(F)cc2)c(F)c(N)c1Cl [Compound 204] was run?
A: 45 to 59%

same assay, conditions: probit analysis, dose for growth reduction of 50 percent, 21 days after application

Q: Nc1cc(-c2ccc(Br)c(F)c2F)nc(C(=O)O)c1Cl [Compound 91] was tested. Which “GR50 ALOMY” value did it give?
A: 98 g ai/ha

Q: How did the “GR50 ALOMY” value turn out when COC(=O)c1nc(-c2ccc(F)c(F)c2F)c(F)c(N)c1Cl [Compound 186] was run?
A: >140 g ai/ha

Q: For COC(=O)c1nc(-c2ccc(F)cc2)c(F)c(N)c1Cl [Compound 204], which “GR50 ALOMY” value is on record?
A: 105 g ai/ha

same assay, conditions: probit analysis, dose for growth reduction of 80 percent, 21 days after application

Q: For Nc1cc(-c2ccc(Br)c(F)c2F)nc(C(=O)O)c1Cl [Compound 91], which “GR80 ALOMY” value is on record?
A: >140 g ai/ha

Q: Which “GR80 ALOMY” value does the source give for COC(=O)c1nc(-c2ccc(F)c(F)c2F)c(F)c(N)c1Cl [Compound 186] here?
A: >140 g ai/ha

Q: With COC(=O)c1nc(-c2ccc(F)cc2)c(F)c(N)c1Cl [Compound 204] as the compound, how does the “GR80 ALOMY” value read?
A: >140 g ai/ha

system: SETVI: green foxtail (Setaria viridis); assay: as above; type: in vivo; conditions: Setaria viridis, post-emergence, 504 h; 35 g ai/ha; read-out: Visual Growth Reduction (%) 21 Days After Application SETVI
Outline: as §1

Q: For Nc1cc(-c2ccc(Br)c(F)c2F)nc(C(=O)O)c1Cl [Compound 91], which pest or weed control at 35 g/ha is on record?
A: 60 to 74%

same assay, conditions: Setaria viridis, post-emergence, 504 h; 70 g ai/ha; read-out: Visual Growth Reduction (%) 21 Days After Application SETVI

Q: How did the pest or weed control at 70 g/ha turn out when Nc1cc(-c2ccc(Br)c(F)c2F)nc(C(=O)O)c1Cl [Compound 91] was run?
A: 75 to 84%

same assay, conditions: Setaria viridis, post-emergence, 504 h; 140 g ai/ha; read-out: Visual Growth Reduction (%) 21 Days After Application SETVI

Q: Which pest or weed control at 140 g/ha does the source give for Nc1cc(-c2ccc(Br)c(F)c2F)nc(C(=O)O)c1Cl [Compound 91] here?
A: 75 to 84%

same assay, conditions: probit analysis, dose for growth reduction of 50 percent, 21 days after application

Q: For Nc1cc(-c2ccc(Br)c(F)c2F)nc(C(=O)O)c1Cl [Compound 91], which “GR50 SETVI” value is on record?
A: 6 g ai/ha

same assay, conditions: probit analysis, dose for growth reduction of 80 percent, 21 days after application

Q: With Nc1cc(-c2ccc(Br)c(F)c2F)nc(C(=O)O)c1Cl [Compound 91] as the compound, how does the “GR80 SETVI” value read?
A: 105 g ai/ha
